Source: patent US10473666B2, “Dye compounds” (SFC CO., LTD., priority 2015, dated 2019)

What was measured:
[1] = Absorption spectra, emission spectra, molar extinction coefficients and quantum yields of the dye compounds; format: physicochemical
[2] = Photophysical properties incl. two-photon cross-sections (femtosecond fluorescence measurement technique); format: physicochemical; details: for eΦ: Molar extinction coefficient × fluorescence quantum yield: in M-1cm-1
Protocol: All measurements were performed in DMSO, ethanol, and PBS buffer. Two-photon cross-sections (δ) were measured using a femtosecond (fs) fluorescence measurement technique.

Row | SMILES | Quantum yield ([1]; Table 6, solvent DMSO) | ε (molar extinction coefficient) ([1]; Table 6, solvent DMSO) | λabs ([1]; Table 6, solvent DMSO) | λem ([1]; Table 6, solvent DMSO) | Quantum yield ([1]; Table 6, solvent EtOH) | ε (molar extinction coefficient) ([1]; Table 6, solvent EtOH) | λabs ([1]; Table 6, solvent EtOH) | λem ([1]; Table 6, solvent EtOH) | Quantum yield ([1]; Table 6, solvent PBS) | ε (molar extinction coefficient) ([1]; Table 6, solvent PBS) | λabs ([1]; Table 6, solvent PBS) | λem ([1]; Table 6, solvent PBS) | also measured
1 | CC[N+]1=C(/C=C/C=C2/N(CCCCCC(=O)O)c3ccccc3C2(C)C)C(C)(C)c2ccccc21 [Comparative, reference compound] |  |  |  |  |  |  |  |  |  |  |  |  | Q.Y. (quantum yield) ([1]; Table 1, solvent not given): 0.04; ε (molar extinction coefficient) ([1]; Table 1, solvent not given): 150,000 M^−1cm^−1; λabs ([1]; Table 1, solvent not given): 548 nm; λem ([1]; Table 1, solvent not given): 562 nm; Quantum yield ([1]; Table 4, solvent not given): 0.04; ε (molar extinction coefficient) ([1]; Table 4, solvent not given): 150,000 M^−1cm^−1; λabs ([1]; Table 4, solvent not given): 548 nm; λem ([1]; Table 4, solvent not given): 562 nm; Quantum yield ([1]; Table 6, solvent not given): 0.04; ε (molar extinction coefficient) ([1]; Table 6, solvent not given): 150,000 M^−1cm^−1; λabs ([1]; Table 6, solvent not given): 548 nm; λem ([1]; Table 6, solvent not given): 562 nm
2 | CC1(C)C2=C3C=C4C=C(c5nc6ccc(C(=O)O)cc6s5)C(=O)C=C4OC3CCN2c2ccccc21 (stereo not shown) [Formula 51] |  |  |  |  |  |  |  |  |  |  |  |  | Quantum yield ([1]; Table 4, solvent DMSO): 0.75; ε (molar extinction coefficient) ([1]; Table 4, solvent DMSO): 78,800 M^−1cm^−1; λabs ([1]; Table 4, solvent DMSO): 595 nm; λem ([1]; Table 4, solvent DMSO): 621 nm
3 | CC1(C)C2=[N+](CCC3Oc4c(cc5c6c4CCCN6CCC5)C=C23)c2ccccc21 (stereo not shown) [Formula 100] | 0.90 | 65,000 M^−1cm^−1 | 594 nm | 618 nm | 0.90 | 75,000 M^−1cm^−1 | 592 nm | 612 nm | 0.80 | 54,000 M^−1cm^−1 | 589 nm | 608 nm | d: Peak two-photon cross-section ([2]; Buffer (PBS buffer)): 272 10^−50 cm^4s per photon (GM); dΦ: Two-photon action cross-section ([2]; Buffer (PBS buffer)): 177 GM; Φ: Fluorescence quantum yield ([2]; Buffer (PBS buffer)): 0.65; λ^(2)max^abs: Maximum wavelength in two-photon absorption spectrum ([2]; Buffer (PBS buffer)): 740 nm; λmax^fl: Maximum wavelength in single-photon emission spectrum ([2]; Buffer (PBS buffer)): 611 nm; eΦ: Molar extinction coefficient × fluorescence quantum yield ([2]; Buffer (PBS buffer)): 61750; Φ: Fluorescence quantum yield ([2]; DMSO): 0.90; λmax^fl: Maximum wavelength in single-photon emission spectrum ([2]; DMSO): 618 nm; dΦ: Two-photon action cross-section ([2]; EtOH): 114 GM; λ^(2)max^abs: Maximum wavelength in two-photon absorption spectrum ([2]; EtOH): 750 nm
4 | C[n+]1c(/C=C/C2=CC3=CC4=C5N(CCC4OC3=CC2=O)c2ccccc2C5(C)C)sc2ccccc21 (stereo not shown) [Formula 104] | 0.38 | 52,000 M^−1cm^−1 | 646 nm | 685 nm |  |  |  |  | 0.09 | 28,000 M^−1cm^−1 | 559 nm | 572 nm | 
5 | CC1=CC(C)(C)N2CCCc3c4c(cc1c32)C=C1C2=[N+](CCC1O4)c1ccccc1C2(C)C (stereo not shown) [Formula 105] | 0.70 | 37,000 M^−1cm^−1 | 613 nm | 649 nm | 0.50 | 44,000 M^−1cm^−1 | 611 nm | 645 nm | 0.28 | 35,000 M^−1cm^−1 | 604 nm | 643 nm | 
6 | CC1=CC(C)(C)N(CCCCCC(=O)O)c2cc3c(cc21)C=C1C2=[N+](CCC1O3)c1ccc3ccccc3c1C2(C)C (stereo not shown) [Formula 106] | 0.72 | 55,000 M^−1cm^−1 | 620 nm | 660 nm | 0.59 | 70,000 M^−1cm^−1 | 620 nm | 657 nm | 0.21 | 29,000 M^−1cm^−1 | 616 nm | 652 nm | 
7 | CC1(C)C2=C3C=C4C=C(C(=O)O)C(=O)C=C4OC3CCN2c2ccc(S(=O)(=O)O)cc21 (stereo not shown) [Formula 53] |  |  |  |  |  |  |  |  |  |  |  |  | Quantum yield ([1]; Table 4, solvent DMSO): 0.95; ε (molar extinction coefficient) ([1]; Table 4, solvent DMSO): 33,000 M^−1cm^−1; λabs ([1]; Table 4, solvent DMSO): 546 nm; λem ([1]; Table 4, solvent DMSO): 570 nm
8 | Oc1ccc2c(c1)OC1CC[n+]3c(sc4ccccc43)C1=C2 (stereo not shown) [Formula 102] | 0.99 | 23,000 M^−1cm^−1 | 570 nm | 586 nm | 0.78 | 6,800 M^−1cm^−1 | 557 nm | 578 nm | 0.70 | 7,100 M^−1cm^−1 | 524 nm | 571 nm | d: Peak two-photon cross-section ([2]; Buffer (PBS buffer)): 60 10^−50 cm^4s per photon (GM); dΦ: Two-photon action cross-section ([2]; Buffer (PBS buffer)): 42 GM; Φ: Fluorescence quantum yield ([2]; Buffer (PBS buffer)): 0.70; λ^(2)max^abs: Maximum wavelength in two-photon absorption spectrum ([2]; Buffer (PBS buffer)): 910 nm; λmax^fl: Maximum wavelength in single-photon emission spectrum ([2]; Buffer (PBS buffer)): 571 nm; eΦ: Molar extinction coefficient × fluorescence quantum yield ([2]; Buffer (PBS buffer)): 4970; Φ: Fluorescence quantum yield ([2]; DMSO): 1.00; λmax^fl: Maximum wavelength in single-photon emission spectrum ([2]; DMSO): 586 nm; dΦ: Two-photon action cross-section ([2]; EtOH): 7.6 GM; λ^(2)max^abs: Maximum wavelength in two-photon absorption spectrum ([2]; EtOH): 750 nm
9 | CC1=CC(C)(C)N2CCCc3c4c(cc1c32)C=C1C2=[N+](CCC1O4)c1ccc3ccccc3c1C2(C)C (stereo not shown) [Formula 107] | 0.70 | 40,000 M^−1cm^−1 | 629 nm | 664 nm | 0.52 | 50,000 M^−1cm^−1 | 628 nm | 659 nm | 0.29 | 37,000 M^−1cm^−1 | 624 nm | 655 nm | 
10 | COc1ccc2c(c1)OC1CC[N+]3=C(C1=C2)C(C)(C)c1ccccc13 (stereo not shown) [Formula 99] | 0.65 | 21,000 M^−1cm^−1 | 467 nm | 563 nm | 0.52 | 22,000 M^−1cm^−1 | 474 nm | 558 nm | 0.42 | 30,000 M^−1cm^−1 | 463 nm | 558 nm | 
11 | CC1(C)C2=C3C=C4C=CC(=O)C=C4OC3CCN2c2ccc(CC(=O)O)cc21 (stereo not shown) [Formula 52] |  |  |  |  |  |  |  |  |  |  |  |  | Quantum yield ([1]; Table 4, solvent PBS): 0.61; λabs ([1]; Table 4, solvent PBS): 541 nm; λem ([1]; Table 4, solvent PBS): 564 nm
12 | C1=C2c3sc4ccccc4[n+]3CCC2Oc2c1cc1c3c2CCCN3CCC1 (stereo not shown) [Formula 101] | 0.70 | 54,000 M^−1cm^−1 | 584 nm | 630 nm | 0.87 | 66,000 M^−1cm^−1 | 585 nm | 623 nm | 0.61 | 49,000 M^−1cm^−1 | 578 nm | 619 nm | d: Peak two-photon cross-section ([2]; Buffer (PBS buffer)): 89 10^−50 cm^4s per photon (GM); dΦ: Two-photon action cross-section ([2]; Buffer (PBS buffer)): 54 GM; Φ: Fluorescence quantum yield ([2]; Buffer (PBS buffer)): 0.61; λ^(2)max^abs: Maximum wavelength in two-photon absorption spectrum ([2]; Buffer (PBS buffer)): 740 nm; λmax^fl: Maximum wavelength in single-photon emission spectrum ([2]; Buffer (PBS buffer)): 619 nm; eΦ: Molar extinction coefficient × fluorescence quantum yield ([2]; Buffer (PBS buffer)): 29890; Φ: Fluorescence quantum yield ([2]; DMSO): 0.70; λmax^fl: Maximum wavelength in single-photon emission spectrum ([2]; DMSO): 630 nm; dΦ: Two-photon action cross-section ([2]; EtOH): 54 GM; λ^(2)max^abs: Maximum wavelength in two-photon absorption spectrum ([2]; EtOH): 720 nm
13 | CC1(C)C2=C3C=C4C=C(C=O)C(=O)C=C4OC3CCN2c2ccccc21 (stereo not shown) [Formula 103] | 0.88 | 108,000 M^−1cm^−1 | 566 nm | 586 nm | 0.84 | 70,000 M^−1cm^−1 | 547 nm | 574 nm | 0.79 | 48,000 M^−1cm^−1 | 516 nm | 563 nm | 
